Laboratory results taken from patent US20230286983A1 (4E Therapeutics, Inc., priority 2020, published 2023).

Experiments:
MNK1 = MNK1 (Homo sapiens, UniProt Q9BUB5); experiment: MNK1 substrate phosphorylation assay; type: biochemical; conditions: recombinant human kinase
P-gp (human MDR1, ABCB1) = experiment: MDCK-MDR1 permeability (blood brain barrier permeability); type: in vitro ADME, Canine; conditions: dog; for efflux ratio at 5 μM: MDCK-MDR1, 5 μM, read-out: Efflux ratio (ratio B-A/A-B); for Papp A→B at 5 μM: MDCK-MDR1, Apical to basolateral transport; for Papp A→B at 5 μM / Papp B→A at 5 μM: average of two experiments; for Papp B→A at 5 μM: MDCK-MDR1, Basolateral to apical transport
MNK2 = MNK2 (Homo sapiens, UniProt Q9HBH9); experiment: MNK2 substrate phosphorylation assay; type: biochemical; conditions: recombinant human kinase
Sequence of MNK2 (Q9HBH9 whole entry): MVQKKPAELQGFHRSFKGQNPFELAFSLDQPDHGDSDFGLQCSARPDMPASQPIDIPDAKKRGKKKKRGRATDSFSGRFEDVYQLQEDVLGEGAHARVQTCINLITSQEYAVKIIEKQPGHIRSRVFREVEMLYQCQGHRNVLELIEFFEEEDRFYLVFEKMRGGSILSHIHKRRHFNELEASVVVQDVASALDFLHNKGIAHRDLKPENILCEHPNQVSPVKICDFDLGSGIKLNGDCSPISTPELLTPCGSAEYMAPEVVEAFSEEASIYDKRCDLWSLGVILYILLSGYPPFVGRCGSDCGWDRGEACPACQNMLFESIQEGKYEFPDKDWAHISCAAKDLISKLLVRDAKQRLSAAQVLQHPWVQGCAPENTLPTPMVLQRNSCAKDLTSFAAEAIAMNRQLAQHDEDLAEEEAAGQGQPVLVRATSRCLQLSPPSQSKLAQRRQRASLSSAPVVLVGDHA

[1] = test system: eIF4E phosphorylation at Serine 209 in the human embryonic kidney (HEK) 293 cell line; experiment: eIF4E phosphorylation in HEK 293 cells (fluorescent plate reader); type: cell-based; conditions: eIF4E phosphorylation at Serine 209, 2 hours exposure
Procedure: The ability of MNK inhibitors described herein to inhibit eIF4E phosphorylation at Serine 209 in the human embryonic kidney (HEK) 293 cell line was tested by exposing the cells to compound for 2 hours and then measuring eIF4E phosphorylation with a phosphorylation-specific antibody in a fluorescent plate reader. These experiments were done with HEK-293 cells plated on 96 well plates. Following treatment, cells were fixed with ice cold methanol for 10 min and then washed in 1× phosphate buffered saline (PBS) and the permeabilized with 0.02% Triton X-100 in 10% normal goat serum made up in PBS. Primary antibody was applied overnight at a concentration dilution of 1:2000 (p-eIF4E antibody from Cell Signaling ab76256). Following washing, cells were then exposed to secondary antibody conjugated to alexa-fluor 488 and then visualized on a Syngergy HTX plate reader. Fluorescence for p-eIF4E was measured and normalized to total DAPI fluorescence to determine the percentage of eIF4E phosphorylation in each well. Data were plotted in Graphpad Prism V8 to determine concentration-response effects and calculate IC50 values.

[2] = Liver microsome stability, mouse; type: in vitro ADME; conditions: for half-life: mouse, liver microsomes
[3] = Liver microsome stability, rat; type: in vitro ADME; conditions: Rat liver microsomes (#); for microsomal CLint: read-out: CLint rodent; for half-life: read-out: Rodent liver microsomes t1/2
[4] = Liver microsome stability, human; type: in vitro ADME; conditions: liver microsomes; for half-life: read-out: Human liver microsomes t1/2
[5] = mouse liver microsomes, Table 11b, read-out: T1/2

Sequence of MNK1 (Q9BUB5 whole entry): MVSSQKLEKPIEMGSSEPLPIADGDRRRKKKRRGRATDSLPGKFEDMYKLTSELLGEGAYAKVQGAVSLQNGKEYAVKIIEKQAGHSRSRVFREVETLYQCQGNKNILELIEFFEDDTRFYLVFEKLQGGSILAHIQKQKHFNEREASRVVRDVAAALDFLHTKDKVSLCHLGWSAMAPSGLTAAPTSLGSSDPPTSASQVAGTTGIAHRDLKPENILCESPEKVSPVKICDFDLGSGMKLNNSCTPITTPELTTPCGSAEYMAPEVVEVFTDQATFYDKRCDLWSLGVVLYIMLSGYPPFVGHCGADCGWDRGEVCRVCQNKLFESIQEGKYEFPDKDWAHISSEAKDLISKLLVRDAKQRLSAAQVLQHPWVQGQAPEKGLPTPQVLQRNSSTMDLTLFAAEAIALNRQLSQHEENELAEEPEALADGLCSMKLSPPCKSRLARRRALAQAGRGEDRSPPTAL

Compound | IC50 (MNK1) | IC50 (MNK2) | IC50 ([1]; Homo sapiens, HEK293, 2 h) | other results
Cc1cc(Nc2cc(N)ncn2)c(=O)n2c1C(=O)NC21Cc2ccccc2[C@@H]1F (single isomer, unassigned) [Compound 4ET-01-010A, 6-((6-Aminopyrimidin-4-yl)amino)-1′-fluoro-8-methyl-1′,3′-dihydro-2H-spiro[imidazo[1,5-a]pyridine-3,2′-indene]-1,5-dione] | 73.4 nM | 9.24 nM | – | efflux ratio at 5 μM (P-gp (human MDR1, ABCB1)): 1.5; Papp A→B at 5 μM (P-gp (human MDR1, ABCB1)): 42.7 ×10⁻⁶ cm/s; Papp B→A at 5 μM (P-gp (human MDR1, ABCB1)): 63.9 ×10⁻⁶ cm/s; IC50 [1]: 35.4 nM; half-life [2, 5]: 1.92 h
Cc1cc(Nc2cc(N)ncn2)c(=O)n2c1C(=O)NC21Cc2ccccc2[C@@H]1F (single isomer, unassigned) [Compound 4ET-01-010B, 6-((6-Aminopyrimidin-4-yl)amino)-1′-fluoro-8-methyl-1′,3′-dihydro-2H-spiro[imidazo[1,5-a]pyridine-3,2′-indene]-1,5-dione] | 348 nM | 96.6 nM | – | IC50 [1]: 71.3 nM
Cc1cc(Nc2cc(NC(=O)C3CC3)ncn2)c(=O)n2c1C(=O)NC21Cc2ccccc2[C@@H]1O (stereo in doubt) [Compound 4ET-03-063, N-(6-((1′-Hydroxy-8-methyl-1,5-dioxo-1,1′,3′,5-tetrahydro-2H-spiro[imidazo[1,5-a]pyridine-3,2′-inden]-6-yl)amino)pyrimidin-4-yl)cyclopropanecarboxamide] | 35 nM | 3 nM | 17 nM | efflux ratio at 5 μM (P-gp (human MDR1, ABCB1)): 10.2; Papp A→B at 5 μM (P-gp (human MDR1, ABCB1)): 8.7 ×10⁻⁶ cm/s; Papp B→A at 5 μM (P-gp (human MDR1, ABCB1)): 64.9 ×10⁻⁶ cm/s; half-life [2, 5]: 3.7 h
Cc1cc(Nc2cc(N)ncn2)c(=O)n2c1C(=O)NC21CCCC1 [Compound 4ET-01-001, 6′-((6-Aminopyrimidin-4-yl)amino)-8′-methyl-2′H-spiro[cyclopentane-1,3′-imidazo[1,5-a]pyridine]-1′,5′-dione] | – | – | – | IC50 ([1]; Homo sapiens, HEK293): 10.9 nM
CC1=CC2(CCC1)NC(=O)c1c(C)cc(Nc3cc(N)ncn3)c(=O)n12 (stereo not shown) [Compound 4ET-01-058, 6′-((6-Aminopyrimidin-4-yl)amino)-3,8′-dimethyl-2′H-spiro[cyclohexane-1,3′-imidazo[1,5-a]pyridin]-2-ene-1′,5′-dione] | 58.4 nM | 6.5 nM | 10.9 nM | efflux ratio at 5 μM (P-gp (human MDR1, ABCB1)): 1.1; Papp A→B at 5 μM (P-gp (human MDR1, ABCB1)): 57.8 ×10⁻⁶ cm/s; Papp B→A at 5 μM (P-gp (human MDR1, ABCB1)): 61.2 ×10⁻⁶ cm/s; half-life [2, 5]: 7.67 h
Cc1cc(Nc2cc(N3CCN(CCN(C)C)CC3)ncn2)c(=O)n2c1C(=O)NC21CCCCC1 [Compound 4ET-02-002] | – | – | – | MNK1 IC50 (MNK1): inactive; MNK2 IC50 (MNK2): inactive
Cc1cc(Nc2cc(NC(=O)C3CC3)ncn2)c(=O)n2c1C(=O)NC21CCCCC1 [Compound 4ET-02-003, N-(6-((8′-Methyl-1′,5′-dioxo-1′,5′-dihydro-2′H-spiro[cyclohexane-1,3′-imidazo[1,5-a]pyridin]-6′-yl)amino)pyrimidin-4-yl)cyclopropanecarboxamide] | 140 nM | 4.1 nM | 1.4 nM | microsomal CLint [3]: 3.75 µL/min/mg; half-life [3]: 6.17 h; microsomal CLint [4]: 2.31 µL/min/mg; half-life [4]: 9.98 h
Cc1cc(Nc2cc(NCCN3CCOCC3)ncn2)c(=O)n2c1C(=O)NC21CCCCC1 [Compound 4ET-02-005] | 45.1 nM | 10.4 nM | 22.5 nM | microsomal CLint [3]: 13.6 µL/min/mg; half-life [3]: 1.7 h; efflux ratio at 5 μM (P-gp (human MDR1, ABCB1)): 9.4; Papp A→B at 5 μM (P-gp (human MDR1, ABCB1)): 4.5 ×10⁻⁶ cm/s; Papp B→A at 5 μM (P-gp (human MDR1, ABCB1)): 42.2 ×10⁻⁶ cm/s; microsomal CLint [4]: 5.64 µL/min/mg; half-life [4]: 4.1 h
Cc1cc(Nc2cc(NCCC(=O)O)ncn2)c(=O)n2c1C(=O)NC21CCCCC1 [Compound 4ET-02-006, 3-((6-((8′-Methyl-1′,5′-dioxo-1′,5′-dihydro-2′H-spiro[cyclohexane-1,3′-imidazo[1,5-a]pyridin]-6′-yl)amino)pyrimidin-4-yl)amino)propanoic acid] | 346 nM | 14.4 nM | – | efflux ratio at 5 μM (P-gp (human MDR1, ABCB1)): 0.8; Papp A→B at 5 μM (P-gp (human MDR1, ABCB1)): 0.1 ×10⁻⁶ cm/s; Papp B→A at 5 μM (P-gp (human MDR1, ABCB1)): 0.1 ×10⁻⁶ cm/s
Cc1cc(Nc2cc(NC(=O)CN3CCOCC3)ncn2)c(=O)n2c1C(=O)NC21CCCCC1 [Compound 4ET-02-007, N-(6-((8′-Methyl-1′,5′-dioxo-1′,5′-dihydro-2′H-spiro[cyclohexane-1,3′-imidazo[1,5-a]pyridin]-6′-yl)amino)pyrimidin-4-yl)-2-morpholinoacetamide] | 89 nM | 3.6 nM | – | efflux ratio at 5 μM (P-gp (human MDR1, ABCB1)): 5.6; Papp A→B at 5 μM (P-gp (human MDR1, ABCB1)): 7.3 ×10⁻⁶ cm/s; Papp B→A at 5 μM (P-gp (human MDR1, ABCB1)): 40.8 ×10⁻⁶ cm/s; microsomal CLint [4]: 6.42 µL/min/mg; half-life [4]: 3.6 h; microsomal CLint ([2]; Mouse liver microsomes (*), read-out: CLint rodent): 8.7 µL/min/mg; half-life ([2]; Mouse liver microsomes (*), Table 11a, read-out: Rodent liver microsomes t1/2): 2.65 h
Cc1cc(Nc2cc(NC(=O)C(C)C)ncn2)c(=O)n2c1C(=O)NC2(C)C [Compound 4ET-03-001] | 119 nM | 11.9 nM | 47 nM | –
Cc1cc(Nc2cc(NC(=O)C3CC3)ncn2)c(=O)n2c1C(=O)NC2(C)C [Compound 4ET-03-002, N-(6-((3,3,8-Trimethyl-1,5-dioxo-1,2,3,5-tetrahydroimidazo[1,5-a]pyridin-6-yl)amino)pyrimidin-4-yl)cyclopropanecarboxamide] | 133 nM | – | – | IC50 ([1]; Homo sapiens, HEK293): 5.3 nM
Cc1cc(Nc2cc(NCCN3CCOCC3)ncn2)c(=O)n2c1C(=O)NC2(C)C [Compound 4ET-03-003] | 80.2 nM | 22.6 nM | 110 nM | –
Cc1cc(Nc2cc(NCCO)ncn2)c(=O)n2c1C(=O)NC2(C)C [Compound 4ET-03-004] | 84.5 nM | 7.7 nM | 86.6 nM | –
Cc1cc(Nc2cc(NCCN3CCOCC3)ncn2)c(=O)n2c1C(=O)NC21CCCC1 [Compound 4ET-03-006, 8′-Methyl-6′-((6-((2-morpholinoethyl)amino)pyrimidin-4-yl)amino)-2′H-spiro[cyclopentane-1,3′-imidazo[1,5-a]pyridine]-1′,5′-dione] | 64.6 nM | 5.9 nM | 53 nM | –
Cc1cc(Nc2cc(NCCO)ncn2)c(=O)n2c1C(=O)NC21CCCC1 [Compound 4ET-03-007, 6′-((6-((2-Hydroxyethyl)amino)pyrimidin-4-yl)amino)-8′-methyl-2′H-spiro[cyclopentane-1,3′-imidazo[1,5-a]pyridine]-1′,5′-dione] | 96.7 nM | 4.9 nM | 10 nM | efflux ratio at 5 μM (P-gp (human MDR1, ABCB1)): 6.3; Papp A→B at 5 μM (P-gp (human MDR1, ABCB1)): 2.4 ×10⁻⁶ cm/s; Papp B→A at 5 μM (P-gp (human MDR1, ABCB1)): 15.1 ×10⁻⁶ cm/s
Cc1cc(Nc2cc(NC(=O)C(C)C)ncn2)c(=O)n2c1C(=O)NC21CCOCC1 [Compound 4ET-03-008] | 65.5 nM | 7.4 nM | 52.6 nM | –
Cc1cc(Nc2cc(NCCN3CCOCC3)ncn2)c(=O)n2c1C(=O)NC21CCOCC1 [Compound 4ET-03-010] | 382 nM | 84.8 nM | 164 nM | –
Cc1cc(Nc2cc(NCCO)ncn2)c(=O)n2c1C(=O)NC21CCOCC1 [Compound 4ET-03-011] | 203 nM | 27.8 nM | 32.4 nM | –
Cc1cc(Nc2cc(NCCNS(C)(=O)=O)ncn2)c(=O)n2c1C(=O)NC2(C)C [Compound 4ET-03-012] | 441 nM | 273 nM | – | –
Cc1cc(Nc2cc(NCCNS(C)(=O)=O)ncn2)c(=O)n2c1C(=O)NC21CCOCC1 [Compound 4ET-03-014] | 107 nM | 32.8 nM | – | –
Cc1cc(Nc2cc(NC(=O)C3CC3)ncn2)c(=O)n2c1C(=O)NC2(C)c1cccc(Cl)c1 (stereo not shown) [Compound 4ET-03-035] | 128 nM | 4.3 nM | 8.7 nM | –
Cc1cc(Nc2cc(NC(=O)C3CC3)ncn2)c(=O)n2c1C(=O)NC21CCOc2ccc(Cl)cc21 (stereo not shown) [Compound 4ET-03-036] | 118 nM | 5.65 nM | 8.6 nM | –
CCC1=CC2(CCC1)NC(=O)c1c(C)cc(Nc3cc(NC(=O)C4CC4)ncn3)c(=O)n12 (stereo not shown) [Compound 4ET-03-039, N-(6-((3-Ethyl-8′-methyl-1′,5′-dioxo-1′,5′-dihydro-2′H-spiro[cyclohexane-1,3′-imidazo[1,5-a]pyridin]-2-en-6′-yl)amino)pyrimidin-4-yl)cyclopropanecarboxamide] | 31.6 nM | 1.62 nM | 2.6 nM | –
Cc1cc(Nc2cc(NC(=O)C3CC3)ncn2)c(=O)n2c1C(=O)NC21Cc2ccc(Cl)cc2C1 (stereo not shown) [Compound 4ET-03-054] | 118 nM | 5.7 nM | 8.6 nM | –
